Molecular target: PIK3CB;PIK3CG;PIK3CD;PIK3CA (human) (UniProt P48736)
Experiment: Inhibition of PIK3CA/PIK3CB/PIK3CD/PIK3CG Kinase Activity

SMILES | IC50 [nM]
COC[C@H]1OC(=O)/C(=C/NCCCN(C)C)C2=C(O)C(=O)C3=C([C@H](OC(C)=O)C[C@]4(C)C(=O)CC[C@@H]34)[C@]21C | 1
COC[C@H]1OC(=O)/C(=C/N2CCCC2)C2=C(O)C(=O)C3=C([C@H](OC(C)=O)C[C@]4(C)C(=O)CC[C@@H]34)[C@]21C | 1.1
COC[C@H]1OC(=O)/C(=C/Sc2ccccc2)C2=C(O)C(=O)C3=C([C@H](OC(C)=O)C[C@]4(C)C(=O)CC[C@@H]34)[C@]21C | 1
C=CCN/C=C1/C(=O)O[C@H](COC)[C@@]2(C)C1=C(O)C(=O)C1=C2[C@H](OC(C)=O)C[C@]2(C)C(=O)CC[C@@H]12 | 7.5
COC[C@H]1OC(=O)/C(=C/NCC(N)=O)C2=C(O)C(=O)C3=C([C@H](OC(C)=O)C[C@]4(C)C(=O)CC[C@@H]34)[C@]21C | 10
COC[C@H]1OC(=O)/C(=C/NCCc2ccccc2)C2=C(O)C(=O)C3=C([C@H](OC(C)=O)C[C@]4(C)C(=O)CC[C@@H]34)[C@]21C | 2
COC[C@H]1OC(=O)/C(=C/N)C2=C(O)C(=O)C3=C([C@H](OC(C)=O)C[C@]4(C)C(=O)CC[C@@H]34)[C@]21C | 2

Compounds with a lower IC50, results first:

IC50 [nM] | SMILES
0.3 | COC[C@H]1OC(=O)/C(=C/N(Cc2ccccc2)Cc2ccccc2)C2=C(O)C(=O)C3=C([C@H](OC(C)=O)C[C@]4(C)C(=O)CC[C@@H]34)[C@]21C
0.1 | COC[C@H]1OC(=O)/C(=C/SC(C)C)C2=C(O)C(=O)C3=C([C@H](OC(C)=O)C[C@]4(C)C(=O)CC[C@@H]34)[C@]21C
0.1 | C=CCN(/C=C1/C(=O)O[C@H](COC)[C@@]2(C)C1=C(O)C(=O)C1=C2[C@H](OC(C)=O)C[C@]2(C)C(=O)CC[C@@H]12)CC=C
0.8 | COC[C@H]1OC(=O)/C(=C/N(C)Cc2ccccc2)C2=C(O)C(=O)C3=C([C@H](OC(C)=O)C[C@]4(C)C(=O)CC[C@@H]34)[C@]21C

Source: the Kinase Knowledgebase extract (Sharma et al. 2016)
